Measurements: ChEMBL document CHEMBL5390209, “Spinosyn A and Its Derivative Inhibit Colorectal Cancer Cell Growth via the EGFR Pathway” (J Nat Prod, 2023)
Active and inactive are the calls of the source. The calls are words filed in the database; no cut-off is given here.

Experiments:
[1] = target: Epidermal growth factor receptor (Homo sapiens) (UniProt P00533); test: Inhibition of EGFR in human SW480 cells incubated for 24 hrs by Western blotting analysis; assay type: cell-based
[2] = Toxicity in human HT-29 cells xenografted Balb/c mouse assessed as change in liver pathology at 2.5 mg/kg/day, ip administrated for every other day and measured after 28 days; assay type: organism-based; settings: in vivo, 672 h, time 28 day
[3] = target: Receptor tyrosine-protein kinase erbB-2 (Homo sapiens) (UniProt P04626); test: Inhibition of HER2 phosphorylation in human SW480 cells incubated for 24 hrs by Western blotting analysis; assay type: cell-based
[4] = tested on: HT-29; test: Antitumor activity against human HT-29 cells xenografted Balb/c mouse assessed as reduction in tumor cell density at 2.5 mg/kg/day, ip administrated for every other day and measured after 28 days by Hematoxylin and Eosin staining based method; assay type: functional, organism-based; settings: time 28.0 day
[5] = tested on: HT-29; test: Inhibition of colony formation in double EGFR/HER2 knockdown human HT-29 cells at 0.75 uM incubated for 14 days by crystal violet staining based colony formation assay; assay type: functional, cell-based; settings: time 14.0 day
[6] = target: Receptor tyrosine-protein kinase erbB-2 (Homo sapiens) (UniProt P04626); test: Inhibition of HER2 in human SW480 cells incubated for 24 hrs by Western blotting analysis; assay type: cell-based
[7] = tested on: HT-29; test: Inhibition of colony formation in EGFR knockdown human HT-29 cells at 0.75 uM incubated for 14 days by crystal violet staining based colony formation assay; assay type: functional, cell-based; settings: time 14.0 day
[8] = tested on: HT-29; test: Antitumor activity against human HT-29 cells xenografted Balb/c mouse assessed as reduction in tumor growth at 2.5 mg/kg/day, ip administrated for every other day and measured after 28 days; assay type: functional, organism-based; settings: time 28.0 day
[9] = target: Receptor tyrosine-protein kinase erbB-2 (Homo sapiens) (UniProt P04626); test: Inhibition of HER2 in human HT-29 cells incubated for 24 hrs by Western blotting analysis; assay type: cell-based
[10] = tested on: HT-29; test: Inhibition of colony formation in HER2 knockdown human HT-29 cells at 0.75 uM incubated for 14 days by crystal violet staining based colony formation assay; assay type: functional, cell-based; settings: time 14.0 day
[11] = Toxicity in human HT-29 cells xenografted Balb/c mouse assessed as change in heart pathology at 2.5 mg/kg/day, ip administrated for every other day and measured after 28 days; assay type: organism-based; settings: in vivo, 672 h, time 28 day
[12] = tested on: HT-29; test: Antiproliferative activity against human HT-29 cells assessed as cell growth inhibition incubated for 48 hrs by MTT assay; assay type: functional, cell-based; settings: for IC50: HT-29, 48 h
[13] = target: Epidermal growth factor receptor (Homo sapiens) (UniProt P00533); test: Inhibition of EGFR phosphorylation in human SW480 cells incubated for 24 hrs by Western blotting analysis; assay type: cell-based
[14] = tested on: SW480; test: Antiproliferative activity against double EGFR/HER2 knockout human SW480 cells assessed as reduction in cell viability incubated for 48 hrs by MTT assay; assay type: functional, cell-based
[15] = target: Epidermal growth factor receptor (Homo sapiens) (UniProt P00533); test: Inhibition of EGFR in human HT-29 cells assessed as reduction in ratio of p-EGFR/EGFR level at 2 uM measured after 3 to 15 hrs by Western blot analysis; assay type: cell-based; settings: time 3-15 hrs
[16] = tested on: HT-29; test: Inhibition of EGFR in human HT-29 cells xenografted in BALB/c nude mouse assessed as reduction in EGFR protein expression level at 2.5 mg/kg/day, ip administrated for every other day and measured after 28 days by immunohistochemistry staining based analysis; assay type: functional, organism-based; settings: time 28.0 day
[17] = target: Epidermal growth factor receptor (Homo sapiens) (UniProt P00533); test: Inhibition of EGFR in human HT-29 cells incubated for 24 hrs by Western blotting analysis; assay type: cell-based; settings: dose 3.75-15 µM
[18] = tested on: HT-29; test: Antiproliferative activity against EGFR knockout human HT-29 cells assessed as reduction in cell viability incubated for 48 hrs by MTT assay; assay type: functional, cell-based
[19] = tested on: RKO; test: Antiproliferative activity against human RKO cells assessed as cell growth inhibition incubated for 48 hrs by MTT assay; assay type: functional, cell-based
[20] = target: Epidermal growth factor receptor (Homo sapiens) (UniProt P00533); test: Inhibition of EGFR in human SW480 cells assessed as reduction in MEK1/2 phosphorylation level at 0.5 to 2 uM incubated for 24 hrs by Western blotting analysis; assay type: cell-based; settings: dose 0.5-2 µM
[21] = tested on: SW480; test: Antiproliferative activity against human SW480 cells assessed as cell growth inhibition incubated for 48 hrs by MTT assay; assay type: functional, cell-based; settings: dose >= 10.0 µM
[22] = target: Epidermal growth factor receptor (Homo sapiens) (UniProt P00533); test: Inhibition of EGFR phosphorylation in human HT-29 cells incubated for 24 hrs by Western blotting analysis; assay type: cell-based
[23] = tested on: LoVo; test: Antiproliferative activity against human LoVo cells assessed as cell growth inhibition incubated for 48 hrs by MTT assay; assay type: functional, cell-based; settings: dose >= 10.0 µM
[24] = tested on: DLD-1; test: Antiproliferative activity against human DLD-1 cells assessed as cell growth inhibition incubated for 48 hrs by MTT assay; assay type: functional, cell-based; settings: dose >= 10.0 µM
[25] = tested on: HT-29; test: Antiproliferative activity against HER2 knockout human HT-29 cells assessed as reduction in cell viability incubated for 48 hrs by MTT assay; assay type: functional, cell-based
[26] = tested on: SW-620; test: Antiproliferative activity against human SW620 cells assessed as cell growth inhibition incubated for 48 hrs by MTT assay; assay type: functional, cell-based; settings: dose >= 10.0 µM
[27] = target: Receptor tyrosine-protein kinase erbB-2 (Homo sapiens) (UniProt P04626); test: Inhibition of HER2 phosphorylation in human HT-29 cells incubated for 24 hrs by Western blotting analysis; assay type: cell-based
[28] = tested on: HCT-116; test: Antiproliferative activity against human HCT-116 cells assessed as cell growth inhibition incubated for 48 hrs by MTT assay; assay type: functional, cell-based; settings: dose >= 10.0 µM
[29] = tested on: HT-29; test: Antiproliferative activity against double EGFR/HER2 knockout human HT-29 cells assessed as reduction in cell viability incubated for 48 hrs by MTT assay; assay type: functional, cell-based
[30] = tested on: SW480; test: Antiproliferative activity against EGFR knockout human SW480 cells assessed as reduction in cell viability incubated for 48 hrs by MTT assay; assay type: functional, cell-based
[31] = target: Epidermal growth factor receptor (Homo sapiens) (UniProt P00533); test: Inhibition of EGFR in human HT-29 cells assessed as reduction in Erk1/2 phosphorylation level at 15 uM by Western blot analysis; assay type: cell-based; settings: time 3-15 hrs, TDE = time-dependent effect
[32] = target: Epidermal growth factor receptor (Homo sapiens) (UniProt P00533); test: Inhibition of EGFR in human HT-29 cells assessed as reduction in STAT3 phosphorylation level at 15 uM by Western blot analysis; assay type: cell-based; settings: time 3-15 hrs, TDE = time-dependent effect
[33] = Toxicity in human HT-29 cells xenografted Balb/c mouse assessed as change in lung pathology at 5 mg/kg/day, ip administrated for every other day and measured after 28 days; assay type: organism-based; settings: in vivo, 672 h, time 28 day
[34] = tested on: HT-29; test: Inhibition of colony formation in HER2 knockdown human HT-29 cells at 6 uM incubated for 14 days by crystal violet staining based colony formation assay; assay type: functional, cell-based; settings: time 14.0 day
[35] = tested on: HT-29; test: Antitumor activity against human HT-29 cells xenografted Balb/c mouse assessed as reduction in tumor growth at 5 mg/kg/day, ip administrated for every other day and measured after 28 days; assay type: functional, organism-based; settings: time 28.0 day
[36] = tested on: HT-29; test: Inhibition of colony formation in EGFR knockdown human HT-29 cells at 6 uM incubated for 14 days by crystal violet staining based colony formation assay; assay type: functional, cell-based; settings: time 14.0 day
[37] = tested on: HT-29; test: Inhibition of colony formation in double EGFR/HER2 knockdown human HT-29 cells at 6 uM incubated for 14 days by crystal violet staining based colony formation assay; assay type: functional, cell-based; settings: time 14.0 day
[38] = tested on: HT-29; test: Inhibition of EGFR in human HT-29 cells xenografted in BALB/c nude mouse assessed as EGFR protein level in tumor at 5 mg/kg/day, ip administrated for every other day and measured after 28 days by Western blotting analysis; assay type: functional, organism-based; settings: time 28.0 day
[39] = tested on: HT-29; test: Antitumor activity against human HT-29 cells xenografted Balb/c mouse assessed as reduction in tumor cell density at 5 mg/kg/day, ip administrated for every other day and measured after 28 days by Hematoxylin and Eosin staining based method; assay type: functional, organism-based; settings: time 28.0 day
[40] = Toxicity in human HT-29 cells xenografted Balb/c mouse assessed as change in liver pathology at 5 mg/kg/day, ip administrated for every other day and measured after 28 days; assay type: organism-based; settings: in vivo, 672 h, time 28 day

Chain of Epidermal growth factor receptor (Homo sapiens) (P00533 whole entry): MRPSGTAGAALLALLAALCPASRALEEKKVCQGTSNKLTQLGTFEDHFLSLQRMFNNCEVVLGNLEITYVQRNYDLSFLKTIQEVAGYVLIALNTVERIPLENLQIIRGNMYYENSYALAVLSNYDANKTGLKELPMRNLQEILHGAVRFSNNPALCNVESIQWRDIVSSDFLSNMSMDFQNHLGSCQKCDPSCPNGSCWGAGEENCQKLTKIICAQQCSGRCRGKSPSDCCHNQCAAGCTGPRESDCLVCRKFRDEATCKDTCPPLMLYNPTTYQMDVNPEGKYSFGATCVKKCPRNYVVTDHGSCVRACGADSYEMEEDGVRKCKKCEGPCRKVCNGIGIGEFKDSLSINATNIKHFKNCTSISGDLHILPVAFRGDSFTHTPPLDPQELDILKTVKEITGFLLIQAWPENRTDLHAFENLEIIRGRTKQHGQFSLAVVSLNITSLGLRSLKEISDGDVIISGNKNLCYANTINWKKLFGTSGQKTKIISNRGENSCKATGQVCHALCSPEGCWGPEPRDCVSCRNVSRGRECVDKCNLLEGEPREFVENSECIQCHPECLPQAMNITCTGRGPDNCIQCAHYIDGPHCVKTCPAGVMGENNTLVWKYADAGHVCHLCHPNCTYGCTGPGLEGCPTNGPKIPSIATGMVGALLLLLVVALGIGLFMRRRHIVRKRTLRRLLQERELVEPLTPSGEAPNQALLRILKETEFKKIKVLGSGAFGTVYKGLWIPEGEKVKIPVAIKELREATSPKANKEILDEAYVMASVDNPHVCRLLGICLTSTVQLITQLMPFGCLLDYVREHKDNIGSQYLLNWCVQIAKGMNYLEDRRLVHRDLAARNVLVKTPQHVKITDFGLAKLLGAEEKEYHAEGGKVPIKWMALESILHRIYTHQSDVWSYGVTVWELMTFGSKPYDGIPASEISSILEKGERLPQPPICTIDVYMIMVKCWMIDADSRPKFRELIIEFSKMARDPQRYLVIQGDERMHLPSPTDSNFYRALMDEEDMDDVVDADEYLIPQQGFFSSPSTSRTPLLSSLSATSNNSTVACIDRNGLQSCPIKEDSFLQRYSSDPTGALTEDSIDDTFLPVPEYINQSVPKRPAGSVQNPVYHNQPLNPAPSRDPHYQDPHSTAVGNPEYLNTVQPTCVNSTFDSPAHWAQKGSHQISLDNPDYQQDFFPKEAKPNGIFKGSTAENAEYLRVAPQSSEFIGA
Chain of Receptor tyrosine-protein kinase erbB-2 (Homo sapiens) (P04626 whole entry): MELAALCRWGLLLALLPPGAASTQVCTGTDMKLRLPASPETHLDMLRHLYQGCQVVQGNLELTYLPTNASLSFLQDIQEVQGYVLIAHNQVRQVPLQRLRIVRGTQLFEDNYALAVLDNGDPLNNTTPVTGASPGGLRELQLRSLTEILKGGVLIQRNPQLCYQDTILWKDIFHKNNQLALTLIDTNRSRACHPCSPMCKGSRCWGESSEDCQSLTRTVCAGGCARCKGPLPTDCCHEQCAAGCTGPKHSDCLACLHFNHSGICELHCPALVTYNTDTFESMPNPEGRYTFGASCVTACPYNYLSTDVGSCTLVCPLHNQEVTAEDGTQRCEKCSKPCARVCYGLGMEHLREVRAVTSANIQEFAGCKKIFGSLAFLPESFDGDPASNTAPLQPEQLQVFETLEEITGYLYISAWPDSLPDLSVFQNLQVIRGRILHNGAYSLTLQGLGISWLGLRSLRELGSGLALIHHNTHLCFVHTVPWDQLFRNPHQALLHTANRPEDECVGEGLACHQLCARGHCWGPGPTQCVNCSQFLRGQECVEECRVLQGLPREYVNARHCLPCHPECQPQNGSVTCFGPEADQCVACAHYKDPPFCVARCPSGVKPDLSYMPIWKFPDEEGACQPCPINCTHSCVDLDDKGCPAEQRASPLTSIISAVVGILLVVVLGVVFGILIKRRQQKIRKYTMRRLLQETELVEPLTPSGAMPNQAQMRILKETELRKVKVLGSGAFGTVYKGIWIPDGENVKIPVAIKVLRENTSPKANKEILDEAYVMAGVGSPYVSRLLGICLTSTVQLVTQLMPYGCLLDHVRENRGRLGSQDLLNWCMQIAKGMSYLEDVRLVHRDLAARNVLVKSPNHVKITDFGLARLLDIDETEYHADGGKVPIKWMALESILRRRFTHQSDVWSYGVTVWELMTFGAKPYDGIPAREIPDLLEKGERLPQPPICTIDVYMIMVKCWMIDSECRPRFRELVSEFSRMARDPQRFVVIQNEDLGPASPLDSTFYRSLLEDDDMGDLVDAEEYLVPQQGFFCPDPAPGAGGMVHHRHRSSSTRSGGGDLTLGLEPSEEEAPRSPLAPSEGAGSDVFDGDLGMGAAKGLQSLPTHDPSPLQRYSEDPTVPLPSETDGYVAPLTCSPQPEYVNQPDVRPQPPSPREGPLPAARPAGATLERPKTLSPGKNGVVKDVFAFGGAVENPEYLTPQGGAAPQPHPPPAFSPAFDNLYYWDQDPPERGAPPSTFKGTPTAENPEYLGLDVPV

SMILES | inhibition [1] | inhibition [3] | inhibition [6] | inhibition [9] | Activity [12] | IC50 [12] [µM] | inhibition [13] | Activity [14] | inhibition [17] | Activity [18] | IC50 [19] [µM] | Activity [21] | inhibition [22] | Activity [23] | Activity [24] | Activity [25] | Activity [26] | inhibition [27] | Activity [28] | Activity [29] | further results
CC[C@H]1CCC[C@H](O[C@H]2CC[C@H](N(C)CC(O)CN3CCNCC3)[C@@H](C)O2)[C@@H](C)C(=O)C2=C[C@@H]3[C@@H](C=C[C@@H]4C[C@@H](O[C@@H]5O[C@@H](C)[C@H](OC)[C@@H](OC)[C@H]5OC)C[C@@H]34)[C@@H]2CC(=O)O1 (some centres undefined) | Dose-Dependent Effect | Dose-Dependent Effect | Dose-Dependent Effect | Dose-Dependent Effect | Dose-Dependent Effect | 0.75 | Dose-Dependent Effect | inactive | Dose-Dependent Effect | inactive | 3.3 | Dose-Dependent Effect | Dose-Dependent Effect | Dose-Dependent Effect | Dose-Dependent Effect | inactive | Dose-Dependent Effect | Dose-Dependent Effect | Dose-Dependent Effect | inactive | Activity [2]: Non-Toxic; Activity [4]: Active; Activity [5]: inactive; Activity [7]: inactive; Activity [8]: Active; Activity [10]: inactive; Activity [11]: Non-Toxic; inhibition [15]: Active; inhibition [16]: Active; inhibition ([19]; dose >= 10.0 µM): Dose-Dependent Effect; inhibition [20]: Active; Activity [30]: inactive
CC[C@H]1CCC[C@H](O[C@H]2CC[C@H](N(C)C)[C@@H](C)O2)[C@@H](C)C(=O)C2=C[C@@H]3[C@@H](C=C[C@@H]4C[C@@H](O[C@@H]5O[C@@H](C)[C@H](OC)[C@@H](OC)[C@H]5OC)C[C@@H]34)[C@@H]2CC(=O)O1 [SPINOSYN A] | Dose-Dependent Effect | Dose-Dependent Effect | Dose-Dependent Effect | Dose-Dependent Effect | Dose-Dependent Effect | 7.3 | Dose-Dependent Effect | inactive | Dose-Dependent Effect | inactive | 17 | Dose-Dependent Effect | Dose-Dependent Effect | Dose-Dependent Effect | Dose-Dependent Effect | inactive | Dose-Dependent Effect | Dose-Dependent Effect | Dose-Dependent Effect | inactive | inhibition [31]: Tde; inhibition [32]: Tde; Activity [33]: Non-Toxic; Activity [34]: inactive; Activity [35]: Active; Activity [36]: inactive; Activity [37]: inactive; Activity ([19]; dose >= 10.0 µM): Dose-Dependent Effect; inhibition [38]: Active; Activity [39]: Active; Activity [40]: Non-Toxic; Activity [30]: inactive
